{
  "source": "patent US10525144B2",
  "about": "“Selective targeting of an anti-inflammatory receptor in human mitochondria and preservation of mitochondrial functions” (THE JOHNS HOPKINS UNIVERSITY, priority 2014, dated 2020)",
  "key": {"mitochondrial function": {"tested_on": "mitochondrial function", "test": "Effect of Losartan on mitochondrial function", "description": "(§1) The inventors recently discovered functional mitochondrial Angiotensin receptors (mtAT1R and mtAT2R) that shift to an increased mtAT1R/mtAT2R ratio with aging. One of the protective benefits of Angiotensin (Ang) receptor type 1 (AT1R) blockers, such as Losartan (LOS), arises from its systemic effects on blood pressure and remodelling. […] Therefore, angiotensin receptor blockers such as Losartan have utility beyond hypertension treatment; angiotensin receptor blockers can be used in the treatment of conditions relevant to older adults."}, "skeletal muscle": {"tested_on": "skeletal muscle", "test": "Skeletal muscle healing and disuse atrophy in older mice", "format": "in vivo", "settings": "high doses", "description": "as §1"}, "mitochondria": {"tested_on": "mitochondria", "test": "Confocal fluorescence microscopy of cellular localization of the conjugate in rat cells (FIG. 3)", "format": "cell-based", "procedure": "FIG. 3 contains confocal fluorescence microscopy images of rat liver cells incubated with MTS1-Ls-5-FAM for 24 hrs.\nThe MTS1-Ls-5-FAM conjugate was transfected into rat cells and incubated for 24 hours before confocal fluorescence microscopy was performed to ascertain cellular localization. Cells were co-stained with Mitotracker-Red and Hoescht 33342 for the mitochondria and nuclei, respectively."}, "[1]": {"tested_on": "mitochondrial membrane potential", "test": "Quantification of mitochondrial membrane potential based on TMRE localization in cardiac cells (FIG. 8)", "format": "cell-based", "settings": "treated vs control, FIG. 8 panels E and F", "description": "FIG. 8 consists of panels A-J. Panels A and B are images showing quantification of mitochondrial membrane potential based on TMRE localization in control (panel A) and MTS1-Ls-5-FAM-treated (panel B) cardiac cells. TMRE localizes in the mitochondria, and based on the intensity of the TMRE dye, the mitochondrial membrane potential can be calculated (panel C)."}, "[2]": {"tested_on": "mitochondria of cardiac cells", "test": "Co-localization with mitochondria of cardiac cells (FIG. 7)", "format": "cell-based"}},
  "note": "Ends that are not written are not given here. * marks the point of attachment. 5FAM = O=C1OC2(c3ccc(O)cc3Oc3cc(O)ccc32)c2ccc(C(=O)*)cc21",
  "data": [
    {"compound": "CCCCc1nc(Cl)c(CO)n1Cc1ccc(-c2ccccc2-c2nn[nH]n2)cc1", "note": "[LOS, Losartan]", "values": [
      {"measurement": "mitochondrial function", "setting": "mitochondrial function", "value": "improved"},
      {"measurement": "disuse atrophy", "setting": "skeletal muscle", "value": "prevent disuse atrophy"},
      {"measurement": "skeletal muscle healing", "setting": "skeletal muscle", "value": "accelerate skeletal muscle healing"}
    ]},
    {"compound": "MTS1-Ls-5-FAM (MLRAALSTARRGPRLSRLLCK(5FAM); not fully specified (C-terminus); printed as MLRAALSTARRGPRLSRLLCK(Mtt); also: losartan conjugated, site not given here)", "values": [
      {"measurement": "localization of the conjugate with the mitochondria", "setting": "mitochondria; rat cells, incubated 24 hours, co-stained with Mitotracker-Red and Hoescht 33342", "value": "greater than 80%"},
      {"measurement": "localization in merged confocal image", "setting": "mitochondria; rat liver cells incubated 24 hrs, FIG. 3 panel (d)", "value": "localization of MTS1-Ls-5-FAM within the mitochondria"},
      {"measurement": "maximum TMRE intensity per pixel", "setting": "[1]", "value": "no significant difference"},
      {"measurement": "co-localization with mitochondria (images)", "setting": "[2]; FIG. 7 panels A and B", "value": "positive co-localization"},
      {"measurement": "co-localization with mitochondria by Pearson coefficient", "setting": "[2]; relative to the scrambled MTS1-Ls-5-FAM, FIG. 7 panel C", "value": "significantly more co-localized"},
      {"measurement": "co-localization with mitochondria by Mander's coefficient", "setting": "[2]; relative to the scrambled MTS1-Ls-5-FAM, FIG. 7 panel D", "value": "significantly more co-localized"}
    ]}
  ]
}
